Test results from patent US20200140446A1, “5,8-DIMETHYL-2-[2-(1-METHYL-4-PHENYL-1H-IMIDAZOL-2-YL)-ETHYL]-[1,2,4]TRIAZOLO[1,5-A]PYRAZINE HEMIADIPATE” (H. Lundbeck A/S, priority 2018, published 2020).
Marks after values point to notes of the source that are not given here.

Experiments:
[1] = Dynamic Vapour Sorption (DVS), hygroscopicity; type: physicochemical; conditions: for Hygroscopic (Yes/No): summary of solid forms of Compound (I), Table 2; for hygroscopicity (DVS conclusion): RH 0% to 95%, 25° C.
Source text: The vapour sorption can be investigated by DVS analysis.
The vapour sorption was investigated by DVS analysis.

[2] = Hydrate formation (precipitation from water / storage at 95% RH, XRPD); type: physicochemical; conditions: for Hydrate formation (Yes/No): summary of solid forms of Compound (I), Table 2
Source text: To determine whether the Compound (I) hemiadipate are prone to form hydrates it was investigated if precipitation from water equilibrated over 7 days led to a new crystal form. In addition, it was explored if storage of Compound (I) hemiadipate at 95% RH for 5 months led to change in the crystal form.

[3] = Intrinsic Dissolution Rate (IDR); type: physicochemical; conditions: 37° C., 10 mg tablet, duplicates
Description: Tablets of 10 mg Compound (I) (free base or hemiadipate) were pressed and put into a micro dissolution chamber. It was subsequently measured how fast the substance was dissolved from the well-defined surface of the tablet into the solvent. The length of a full dissolution experiment was 20 min and the IDR was calculated in the range 1-2.5 min, determined as the slope of the dissolution profile in that specific range. The experiment at pH 2 was performed in 0.01 N HCl, at pH 5 in 50 mM acetate buffer and at pH 6.8 in 50 mM phosphate buffer, respectively, all at 37° C. All experiments were performed in duplicates.
Where the tablet was not fully dissolved after end of experiment, the surface was examined by XRPD, to identify if any changes of solid form have occurred during the experiment.

[4] = Solvate formation (shake-flask precipitation in organic solvents, XRPD); type: physicochemical; conditions: 16 organic solvents, equilibration for 4 days
Source text: To determine whether the Compound (I) hemiadipate forms solvates it was investigated if solvate formation could be observed from precipitation in different organic solvents after equilibration for 4 days in the shake-flask method: Compound (I) hemiadipate was precipitated in various organic solvents from a 1:1 mixture of Compound (I) and adipic acid. The tested solvents were: acetone, acetonitrile, methanol, ethanol, 1-propanol, 2-propanol, 1-butanol, 2-butanol, ethyl acetate, isopropyl acetate, methyl isobutyl ketone, tetrahydrofuran, diethylether, N-methylpyrrolidone, dichloromethane, and n-heptane.

rats = experiment: Conditioned Avoidance Response (CAR) in rats, high dopamine state; type: in vivo
Source text: The inventors of the present invention put forward the hypothesis that many patients with exacerbated positive symptoms can be expected to have increased striatal dopamine levels. Since the dopamine receptors regulate the dopamine signal by controlling cAMP synthesis and PDE10A regulates the gain of this signal by controlling cAMP degradation, the effect of PDE10A inhibition might be altered in conditions with increased striatal dopamine tonus, such as found in patients with prominent positive symptoms. To investigate this further the effect of compounds of the invention were tested in the CAR assay in rats that were co-dosed with a low dose of d-amphetamine (0.20-0.25 mg/kg) to induce a high dopamine state (FIG. 4). […] Compound (I) was tested alone and in combination with a low dose d-amphetamine to induce a high dopamine state. The efficacy was measured as the mean number of avoidances and results are depicted as mean+/−SEM. […] Bars represent the following dose groups (left to right): 1) Vehicle; 2) d-amphetamine (0.2 mg/kg); 3) Compound (I) (0.6 mg/kg); 4) Compound (I) (0.3 mg/kg)+d-amphetamine (0.2 mg/kg); 5) Compound (I) (0.6 mg/kg)+d-amphetamine (0.2 mg/kg); and 6) Compound (I) (3.0 mg/kg)+d-amphetamine (0.2 mg/kg). ** p<0.01 compared to vehicle. ns=non-significant.

| Compound | Hygroscopic (Yes/No) [1] | Hydrate formation (Yes/No) [2] | other results |
| --- | --- | --- | --- |
| Malonate | Yes | Yes |  |
| Oxalate | Yes | Yes |  |
| Tosylate | Yes | Yes |  |
| Cc1ncc(C)n2nc(CCc3nc(-c4ccccc4)cn3C)nc12.O=C[C@H](O)[C@@H](O)[C@H](O)[C@H](O)C(=O)O [D-glucoronate] | Yes | Yes |  |
| Fumarate |  | Yes |  |
| Cc1ncc(C)n2nc(CCc3nc(-c4ccccc4)cn3C)nc12.O=S(=O)(O)O [Hydrogen sulphate] |  | Yes |  |
| L(−)-malate | Yes | Yes |  |
| Cc1ncc(C)n2nc(CCc3nc(-c4ccccc4)cn3C)nc12 [Compound (I) hemiadipate, 5,8-Dimethyl-2-[2-(1-methyl-4-phenyl-1H-imidazol-2-yl)-ethyl]-[1,2,4]triazolo[1,5-a]pyrazine hemiadipate] | No | No | vapour sorption ([1]; DVS, 95% RH at 25° C.): less than 0.1%; hygroscopicity (DVS conclusion) ([1]; DVS): non-hygroscopic; change of crystal form after storage at 95% RH ([2]; 95% RH for 5 months, XRPD): had not changed from the original form; change of crystal form after precipitation from water ([2]; water, equilibrated over 7 days, XRPD): had not changed from the original form; IDR Average ([3]; pH 2, 0.01 N HCl): >2* mg/cm^2 × min; IDR Average ([3]; pH 5, 50 mM acetate buffer): 0.3 mg/cm^2 × min; IDR Average ([3]; pH 6.8, 50 mM phosphate buffer): 0.04 mg/cm^2 × min; solvate formation [4]: does not form solvates |
| Cc1ncc(C)n2nc(CCc3nc(-c4ccccc4)cn3C)nc12 [Compound (I), 5,8-Dimethyl-2-[2-(1-methyl-4-phenyl-1H-imidazol-2-yl)-ethyl]-[1,2,4]triazolo[1,5-a]pyrazine] |  |  | hygroscopicity (DVS conclusion) ([1]; DVS, listed as free base): very hygroscopic; Hygroscopic (Yes/No) ([1]; listed as Free base): Yes; Hydrate formation (Yes/No) ([2]; listed as Free base): Yes; effect on CAR (mean number of avoidances), combined with d-amphetamine (rats; Compound (I) 0.3, 0.6, 3.0 mg/kg + d-amphetamine 0.2 mg/kg (high dopamine state)): this effect was abolished; effect on CAR (mean number of avoidances), dosed alone (rats; Compound (I) alone (0.6 mg/kg), ** p<0.01 compared to vehicle): reduced CAR; IDR Average ([3]; pH 2, 0.01 N HCl, listed as Compound (I) free base): 1.45 mg/cm^2 × min; IDR Average ([3]; pH 5, 50 mM acetate buffer, listed as Compound (I) free base): 0.101 mg/cm^2 × min; IDR Average ([3]; pH 6.8, 50 mM phosphate buffer, listed as Compound (I) free base): 0.025 mg/cm^2 × min |
| Maleate | Yes | Yes |  |
| O=P(O)(O)O [Dihydrogen Phosphate] |  | Yes |  |
| L(+)-tartrate |  | Yes |  |
| Citrate | Yes | Yes |  |
| Br.Cc1ncc(C)n2nc(CCc3nc(-c4ccccc4)cn3C)nc12 [Hydrogen Bromide] | Yes | Yes |  |
| Cl [Hydrogen Chloride] | Yes | Yes |  |
| O=C(O)CCC(=O)C(=O)O [2-oxoglutarate] | Yes | Yes |  |
| Glutarate |  | Yes |  |
